Structures can show the parent of a compound that is named as a salt.
Assays:
[1] = hygroscopicity: water uptake and water content versus relative humidity (VTI, Karl Fisher); assay type: physicochemical
Method: The crystalline diphosphate salt gradually absorbs water to about 13% at 87% relative humidity with a rapid uptake of water to about 48% occurring at about 90% relative humidity. Thermogravametric analysis on the diphosphate salt discloses that three waters are lost by about 75° C., a fourth water is lost by about 120° C., the fifth water is lost by about 170° C., and the final three waters are lost by about 200° C. The maximum number of water molecules necessary for the stabilization of the crystalline lattice appears to be about eight. Drying the diphosphate salt in about 70° C. in air or about 45° C. in a vacuum removed the water leaving a pseudomorph.
Drying in the VTI at 20-25° C. indicated a weight loss of 10%; the dried salt gradually adsorbed water to 15% at 85% RH (relative humidity), followed by a rapid uptake to 48% at 90% RH. At 90% RH, the compound deliquesced.
The mobility of the water within the crystalline lattice is directly related to the relative humidity of the environment the diphosphate salt comes in contact with. For example, at about 87% relative humidity, the compound contains about 13% water; at 60% relative humidity the compound contains about 8% water; and at 40% relative humidity the diphosphate salt contains about 5% water (all calculations by KF).
Both the liquid crystal and the crystalline form of the diphosphate were hygroscopic. When attempts were conducted in hydrophilic solvents, the addition of 4% to 5% (v/v) water to the amorphous slurry caused the compound to crystallize as an octahydate.

[2] = physchem; assay type: physicochemical; settings: water

water adsorbed (gradual) by dried salt ([1]; after drying in the VTI at 20-25° C., at 85% RH) [%]	rapid uptake of water by dried salt ([1]; after drying in the VTI at 20-25° C., at 90% RH) [%]	water content (by KF) ([1]; at 40% relative humidity)	water content (by KF) ([1]; at 60% relative humidity)	water absorbed (gradual) ([1]; at 87% relative humidity)	behaviour at high humidity ([1]; at 90% RH)	water content (by KF) ([1]; at about 87% relative humidity)	rapid uptake of water ([1]; at about 90% relative humidity)	solubility [2] [mg/mL]	hygroscopicity [1]	SMILES
15	48	about 5%	about 8%	about 13%	deliquesced	about 13%	about 48%	~280		CCCNC[C@]1(O)C(C)OC(OC2C(C)C(=O)OC(CC)[C@@](C)(O)[C@H](O)[C@@H](C)NC[C@H](C)C[C@](C)(O)[C@H](OC3OC(C)CC(N(C)C)[C@H]3O)C2C)C[C@@]1(C)OC (stereo partly drawn) [crystalline diphosphate salt, (2R,3S,4R,5R,8R,10R,11R,12S,13S,14R)-13-[[2,6-dideoxy-3-C-methyl-3-O-methyl-4-C-[(propylamino)methyl]-α-L-ribo-hexopryanosyl]oxy]-2-ethyl-3,4,10-trihydroxy-3,5,8,10,12,14-hexamethyl-11-[[3,4,6-trideoxy-3-(dimethylamino)-β-D-xylo-hexopyranosyl]oxy]-1-oxa-6-azacyclopentadecan-15-one diphosphate]
									hygroscopic	CCCNC[C@]1(O)C(C)OC(OC2C(C)C(=O)OC(CC)[C@@](C)(O)[C@H](O)[C@@H](C)NC[C@H](C)C[C@](C)(O)[C@H](OC3OC(C)CC(N(C)C)[C@H]3O)C2C)C[C@@]1(C)OC (stereo partly drawn) [liquid crystal, (2R,3S,4R,5R,8R,10R,11R,12S,13S,14R)-13-[[2,6-dideoxy-3-C-methyl-3-O-methyl-4-C-[(propylamino)methyl]-α-L-ribo-hexopryanosyl]oxy]-2-ethyl-3,4,10-trihydroxy-3,5,8,10,12,14-hexamethyl-11-[[3,4,6-trideoxy-3-(dimethylamino)-β-D-xylo-hexopyranosyl]oxy]-1-oxa-6-azacyclopentadecan-15-one diphosphate]
